Data on 25 molecules can be found in US20250011299A1, “PYRIDAZINYL AMINO DERIVATIVES AS ALK5 INHIBITORS” (CHIESI FARMACEUTICI S.P.A., priority 2021, published 2025).

The structures appear in SMILES notation.

As usually defined, the Ki is the equilibrium dissociation constant of an inhibitor or competing ligand from its target.

For the assay, the target named is T1, human ALK5 (Homo sapiens, UniProt P36897).
T1 construct: human ALK5 (recombinant TGF β1 N-term GST-tagged, 80-end); GST (N); purchased
T1 sequence (P36897 80-503 limits assumed): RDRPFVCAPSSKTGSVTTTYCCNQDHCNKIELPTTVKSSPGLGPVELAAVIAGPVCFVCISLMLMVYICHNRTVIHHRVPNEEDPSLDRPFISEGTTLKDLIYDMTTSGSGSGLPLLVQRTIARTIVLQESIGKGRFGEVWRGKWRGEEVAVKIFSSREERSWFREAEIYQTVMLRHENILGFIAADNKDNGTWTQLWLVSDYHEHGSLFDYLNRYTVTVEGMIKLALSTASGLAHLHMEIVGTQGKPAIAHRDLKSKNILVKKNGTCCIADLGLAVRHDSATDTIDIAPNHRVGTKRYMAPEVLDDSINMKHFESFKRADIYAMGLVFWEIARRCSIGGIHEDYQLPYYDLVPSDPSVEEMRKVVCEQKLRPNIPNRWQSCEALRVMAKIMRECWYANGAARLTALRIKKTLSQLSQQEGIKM
As to the kind of experiment: ADP-GLO Kinases assay of ALK5 enzymatic activity. It is filed as biochemical. The following applies: purified recombinant human ALK5, TGFβ1 peptide substrate, pIC50 converted to pKi by Cheng-Prusoff, high ATP protocol (15 μM) for very potent compounds, 25° C. The method in brief:
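Purified ALK5 preincubated 15 min with compound, then reacted with substrate and ATP; ADP formed read by ADP-Glo luminescence after 120 min or 60 min reaction, all steps at 25° C. 11-point concentration-response; pIC50 converted to pKi via Cheng-Prusoff.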
Background: ADP-Glo first removes unused ATP, then detects ADP through luciferase.
For `CN1CCCN([C@H]2C[C@@H](C(=O)Nc3cc(Nc4cc(-c5cc(Cl)ccc5F)nnc4SCCO)ccn3)C2)CC1` [Example 155, Cis N-(4-{[6-(5-chloro-2-fluorophenyl)-3-[(2-hydroxyethyl)sulfanyl]pyridazin-4-yl]amino}pyridin-2-yl)-3-(4-methyl-1,4-diazepan-1-yl)cyclobutane-1-carboxamide], the Ki was 0.126 to 0.316 nM.
Turning to `CN1CCN(CCC(=O)Nc2cc(Nc3cc(-c4cc(Cl)ccc4F)nnc3S)ccn2)CC1` [Example 179, N-(4-{[6-(5-chloro-2-fluorophenyl)-3-sulfanylpyridazin-4-yl]amino}pyridin-2-yl)-3-(4-methylpiperazin-1-yl)propanamide], the Ki is 0.126 to 0.316 nM.
As for `CN1CCN(CCC(=O)Nc2cc(Nc3cc(-c4cc(Cl)ccc4F)nnc3NCc3cccc(O)c3)ccn2)CC1` [Example 101, N-(4-{[6-(5-chloro-2-fluorophenyl)-3-{[(3-hydroxyphenyl)methyl]amino}pyridazin-4-yl]amino}pyridin-2-yl)-3-(4-methylpiperazin-1-yl)propanamide], the Ki was no more than 0.1 nM.
For `CN1CC2CCC1CN(CC(=O)Nc1cc(Nc3cc(-c4cc(Cl)ccc4F)nnc3SCCO)ccn1)C2` (stereo not shown) [Example 82, N-(4-{[6-(5-chloro-2-fluorophenyl)-3-[(2-hydroxyethyl)sulfanyl]pyridazin-4-yl]amino}pyridin-2-yl)-2-{6-methyl-3,6-diazabicyclo[3.2.2]nonan-3-yl}acetamide], the Ki is no more than 0.1 nM.
As for `CN1CCN(CCC(=O)Nc2cc(Nc3cc(-c4cc(Cl)ccc4F)nnc3SCc3cccc(C(=O)O)c3)ccn2)CC1` [Example 196, 3-({[6-(5-chloro-2-fluorophenyl)-4-({2-[3-(4-methylpiperazin-1-yl)propanamido]pyridin-4-yl}amino)pyridazin-3-yl]sulfanyl}methyl)benzoic acid], the Ki is 0.126 to 0.316 nM.
To `CN(C)CCOC(=O)c1cccc(CSc2nnc(-c3cc(Cl)ccc3F)cc2Nc2ccnc3[nH]ccc23)c1` [Example 207, 2-(dimethylamino)ethyl 3-({[6-(5-chloro-2-fluorophenyl)-4-({1H-pyrrolo[2,3-b]pyridin-4-yl}amino)pyridazin-3-yl]sulfanyl}methyl)benzoate] belongs 0.126 to 0.316 nM; to `CN1CCN(CCC(=O)Nc2cc(Nc3cc(-c4cc(Cl)ccc4F)nnc3SCc3ccc(C(=O)O)cc3)ccn2)CC1` [Example 203, 4-({[6-(5-chloro-2-fluorophenyl)-4-({2-[3-(4-methylpiperazin-1-yl)propanamido]pyridin-4-yl}amino)pyridazin-3-yl]sulfanyl}methyl)benzoic acid], no more than 0.1 nM; to `Nc1cc(Nc2cc(-c3cc(Cl)ccc3F)nnc2OCCO)ccn1` [Example 43, 2-({4-[(2-aminopyridin-4-yl)amino]-6-(5-chloro-2-fluorophenyl)pyridazin-3-yl}oxy)ethan-1-ol], 0.398 to 3.16 nM.
Turning to `CN(CCC(O)C(F)(F)F)c1nnc(-c2cc(Cl)ccc2F)cc1Nc1ccnc(NC(=O)CN2C[C@@H]3C[C@H]2CN3C)c1` (mixture of isomers) [Example 130, N-(4-{[6-(5-chloro-2-fluorophenyl)-3-[methyl(4,4,4-trifluoro-3-hydroxybutyl)amino]pyridazin-4-yl]amino}pyridin-2-yl)-2-[(1S,4S)-5-methyl-2,5-diazabicyclo[2.2.1]heptan-2-yl]acetamide], the Ki is no more than 0.1 nM.
Regarding `Nc1cc(Nc2cc(-c3cc(Cl)ccc3F)nnc2OCC(F)F)ccn1` [Example 53, N4-[6-(5-chloro-2-fluorophenyl)-3-(2,2-difluoroethoxy)pyridazin-4-yl]pyridine-2,4-diamine], the Ki is 0.398 to 3.16 nM.
The result for `CN1CCN(CCC(=O)Nc2cc(Nc3cc(-c4cc(Cl)ccc4F)nnc3N(C)CC3(C)CCOC3=O)ccn2)CC1` (single isomer, unassigned) [Example 128, N-(4-{[6-(5-chloro-2-fluorophenyl)-3-{methyl[(3-methyl-2-oxooxolan-3-yl)methyl]amino}pyridazin-4-yl]amino}pyridin-2-yl)-3-(4-methylpiperazin-1-yl)propanamide] reads no more than 0.1 nM; that for `CN(C)CCOc1nnc(-c2cc(Cl)ccc2F)cc1Nc1ccnc2[nH]ncc12` [Example 42, 6-(5-chloro-2-fluorophenyl)-3-[2-(dimethylamino)ethoxy]-N-{1H-pyrazolo[3,4-b]pyridin-4-yl}pyridazin-4-amine], 0.398 to 3.16 nM.
Turning to `CN1CCN(CCC(=O)Nc2cc(Nc3cc(-c4cc(Cl)ccc4F)nnc3SCCCO)ccn2)CC1` [Example 28, N-(4-{[6-(5-chloro-2-fluorophenyl)-3-[(3-hydroxypropyl)sulfanyl]pyridazin-4-yl]amino}pyridin-2-yl)-3-(4-methylpiperazin-1-yl)propanamide], the Ki was no more than 0.1 nM.
As to `CN1CCN(CCC(=O)Nc2cc(Nc3cc(-c4cc(Cl)ccc4F)nnc3N(C)CC3(C)CCOC3=O)ncn2)CC1` (racemic) [Example 137, N-(6-{[6-(5-chloro-2-fluorophenyl)-3-{methyl[(3-methyl-2-oxooxolan-3-yl)methyl]amino}pyridazin-4-yl]amino}pyrimidin-4-yl)-3-(4-methylpiperazin-1-yl)propanamide], the Ki is no more than 0.1 nM.
`CN1CCN([C@H]2C[C@@H](C(=O)Nc3cc(Nc4cc(-c5cc(Cl)ccc5F)nnc4OC[C@H]4C[C@@](C)(O)C4)ccn3)C2)CC1` [Example 124, Cis N-(4-{[6-(5-chloro-2-fluorophenyl)-3-[(3-hydroxy-3-methylcyclobutyl)methoxy]pyridazin-4-yl]amino}pyridin-2-yl)-3-(4-methylpiperazin-1-yl)cyclobutane-1-carboxamide]: the Ki was no more than 0.1 nM.
Consider `CN1CCN(CCOc2ccc3c(Nc4cc(-c5cc(Cl)ccc5F)nnc4OCCNS(C)(=O)=O)ccnc3c2)CC1` [Example 6, N-(2-{[6-(5-chloro-2-fluorophenyl)-4-({7-[2-(4-methylpiperazin-1-yl)ethoxy]quinolin-4-yl}amino)pyridazin-3-yl]oxy}ethyl)methanesulfonamide], for which the Ki was no more than 0.1 nM.
With `COC(=O)c1cc2c(Nc3cc(-c4cc(Cl)ccc4F)nnc3OCCC[N+](C)(C)C)ccnc2[nH]1` [Example 11, (3-{[6-(5-chloro-2-fluorophenyl)-4-{[2-(methoxycarbonyl)-1H-pyrrolo[2,3-b]pyridin-4-yl]amino}pyridazin-3-yl]oxy}propyl)trimethylazanium chloride], the Ki is 0.398 to 3.16 nM.
With `COCCOc1nnc(-c2cc(Cl)ccc2F)cc1Nc1ccnc2cc(OCCN3CCN(C)CC3)ccc12` [Example 32, N-[6-(5-chloro-2-fluorophenyl)-3-(2-methoxyethoxy)pyridazin-4-yl]-7-[2-(4-methylpiperazin-1-yl)ethoxy]quinolin-4-amine], the Ki is no more than 0.1 nM.
Consider `CN1CCN([C@H]2C[C@H](C(=O)Nc3cc(Nc4cc(-c5cc(Cl)ccc5F)nnc4N(C)C)ccn3)C2)CC1` (single isomer, unassigned) [Example 96, trans N-(4-{[6-(5-chloro-2-fluorophenyl)-3-(dimethylamino)pyridazin-4-yl]amino}pyridin-2-yl)-3-(4-methylpiperazin-1-yl)cyclobutane-1-carboxamide], for which the Ki is no more than 0.1 nM.
As for `CN1CC2CC1CN2CC(=O)Nc1cc(Nc2cc(-c3cc(Cl)ccc3F)nnc2SCCO)ccn1` (stereo not shown) [Example 25, N-(4-{[6-(5-chloro-2-fluorophenyl)-3-[(2-hydroxyethyl)sulfanyl]pyridazin-4-yl]amino}pyridin-2-yl)-2-{5-methyl-2,5-diazabicyclo[2.2.1]heptan-2-yl}acetamide], the Ki is no more than 0.1 nM.
In the case of `O=C(CCN1CCNCC1)Nc1cc(Nc2cc(-c3cc(Cl)ccc3F)nnc2SCCO)ccn1` [Example 153, N-(4-{[6-(5-chloro-2-fluorophenyl)-3-[(2-hydroxyethyl)sulfanyl]pyridazin-4-yl]amino}pyridin-2-yl)-3-(piperazin-1-yl)propanamide], the Ki is no more than 0.1 nM.
The result for `CS(=O)(=O)CCCOc1nnc(-c2cc(Cl)ccc2F)cc1Nc1ccnc(N)c1` [Example 56, N4-[6-(5-chloro-2-fluorophenyl)-3-(3-methanesulfonylpropoxy)pyridazin-4-yl]pyridine-2,4-diamine] reads 0.398 to 3.16 nM; that for `CC(C)OC(=O)C1CCN1c1nnc(-c2cc(Cl)ccc2F)cc1Nc1ccnc(NC(=O)CCN2C[C@@H](C)N[C@@H](C)C2)c1` (mixture of isomers) [Example 184, propan-2-yl 1-[6-(5-chloro-2-fluorophenyl)-4-({2-[3-(3,5-dimethylpiperazin-1-yl)propanamido]pyridin-4-yl}amino)pyridazin-3-yl]azetidine-2-carboxylate], 0.398 to 3.16 nM.
`CN(C)CCOc1nnc(-c2cc(Cl)ccc2F)cc1Nc1ccnc2[nH]ccc12` [Example 41, 6-(5-chloro-2-fluorophenyl)-3-[2-(dimethylamino)ethoxy]-N-{1H-pyrrolo[2,3-b]pyridin-4-yl}pyridazin-4-amine]: the Ki is 0.398 to 3.16 nM.
As for `COc1nnc(-c2cc(Cl)ccc2F)cc1Nc1ccnc(NC(=O)CN2CCN(CC(F)(F)F)CC2)c1` [Example 14, N-(4-{[6-(5-chloro-2-fluorophenyl)-3-methoxypyridazin-4-yl]amino}pyridin-2-yl)-2-[4-(2,2,2-trifluoroethyl)piperazin-1-yl]acetamide], the Ki was no more than 0.1 nM.
